No end group written: not given here.
Tests used:
C. albicans SC5314 [1] = assay type: cell-based, Candida albicans
Description: The candidacidal activity of ISDPs was evaluated by conventional colony forming unit (CFU) assays, as previously described. ISDPs were tested at serial dilutions to determine the half maximal effective concentration (EC50) values. Briefly, approximately 500 germinating C. albicans SC5314 cells were suspended in 100 µL of distilled water in the presence or absence (control growth) of ISDPs. After incubation at 37 °C for 6 h, cell suspensions were plated on Sabouraud dextrose agar. CFUs were enumerated after 48–72 h of incubation at 30 °C, and candidacidal activity was determined as a percentage of CFU reduction. Each assay was carried out in triplicate and at least two independent experiments were performed for each condition. EC50 was calculated by nonlinear regression analysis using GraphPad Prism 5 software. Afterwards, the kinetics of ISDPs killing activity, at their 2× EC50 value concentration, was determined by CFU assays up to 6 h. Samples were collected for CFU determination after 5, 10, 15, 20, 30, 60, 120, 240, and 360 min incubation.
Figure 1 Time kinetics of in vitro activity of in silico designed peptides (ISDPs) against Candida albicans SC5314. Peptide concentrations were equal to their 2× EC50 values. The activity is expressed as percental killing; reported data represent mean values ± standard deviation.

[2] = system: human red blood cells (hRBCs); assay: Hemolytic activity, hemoglobin release; assay type: cell-based; conditions: human red blood cells (group 0 Rh+), 50 µM peptide, 37 °C, absorbance 540 nm, PBS 0%, Triton 1% 100%
Description: Hemolytic and cytotoxic effects were determined as previously described. In particular, ISDPs (final concentrations of 25, 50, and 100 µM) were tested for their hemolytic activities against human red blood cells (hRBCs) (group 0 Rh+). After 30 and 120 min incubation at 37 °C, the release of hemoglobin was monitored by measuring the absorbance of the supernatant at 540 nm. Controls for zero hemolysis (blank) and 100% hemolysis consisted of hRBCs suspended in PBS and Triton 1%, respectively.

[3] = system: monkey kidney epithelial cells (LLC-MK2); assay: MTT cytotoxicity assay; assay type: cell-based; conditions: 200 µM peptide, 24 h, vs. 100% of untreated control cells
Description: MTT assay, based on the ability of metabolically active cells to convert the yellow water-soluble tetrazolium salt into formazan crystals, was used to evaluate peptide cytotoxicity against monkey kidney epithelial cells (LLC-MK2). LLC-MK2 cells were treated with ISDPs (50, 100, and 200 µM) for 24 h. Cells in medium without peptide served as control. After this period, cells were incubated with MTT (5 mg/mL, 10 μL/well) in serum-free medium for 2 h at 37 °C, the medium was removed, and the crystal formazan dye was solubilized by adding isopropanol with 5% HCl 1 M (100 μL). Absorbance was measured at 540 nm.

C. albicans SC5314 [4] = conditions: C. albicans SC5314, CFU assay; EC50 of K10S parent peptide; read-out: EC50 (95% Confidence Intervals); cited from earlier work
Source text: Table 3 In vitro candidacidal activity of in silico designed peptides (ISDPs) against C. albicans SC5314. | column: EC50 ^1 (95% Confidence Intervals)

C. albicans SC5314 [5] = conditions: C. albicans SC5314, parent K10S peptide; cited from earlier work
Description: Candidacidal activity of all tested peptides was very fast. After 30 min, in fact, percental killing ranged from 68% (K10S-SS) to nearly 100% (R-10S-RR and K10S-I).

C. albicans SC5314 cells = conditions: parent peptide K10S; cited from earlier work
Source text: The individual amino acid substitutions also influenced the possible mechanism of action of the peptides. […] All ISDPs were characterized by the ability to induce intracellular ROS production (Figure 5).

C. albicans SC5314 [6] = conditions: G. mellonella larvae infected with C. albicans, treated with parent K10S peptide; controls 24 h; previous work; cited from earlier work
Description: Therapeutic activity of ISDPs against C. albicans infection was evaluated in G. mellonella larvae. After the inoculum of a lethal dose of yeast cells, a single injection of peptides led to a significant increase in survival of larvae in comparison with infected animals inoculated with saline. The median survival time was 48 h for larvae treated with R10S-RR and K10S-I, and 24 h for larvae treated with K10T-TT and K10S-SS, versus 24 h for the control group. In a previous work, a median survival time of 72 h was reported for larvae treated with the parent K10S peptide in comparison with 24 h for ...

| Sequence | percental killing after 30 min (C. albicans SC5314 [1]) [%] | hemolysis ([2]; 30 min) [%] | hemolysis ([2]; 120 min) [%] | cell viability [3] [%] | EC50 (C. albicans SC5314 [4]) [nM] | percental killing at 30 min (C. albicans SC5314 [5]) [%] | apoptosis induction (C. albicans SC5314 cells) | median survival time (C. albicans SC5314 [6]) [h] |
| --- | --- | --- | --- | --- | --- | --- | --- | --- |
| KKVSMSCSAS [Peptide K10S-SS] | 68 | 2.38 | 2.01 | 92.5 ± 0.11 |  |  |  |  |
| KKVTMTCSAS [Peptide K10S] |  |  |  |  | 277 | 36.93 | lack of induction of apoptotic processes | 72 |

Reference: article PMC8227935, “In Silico Predicted Antifungal Peptides: In Vitro and In Vivo Anti-Candida Activity” (Journal of Fungi, 2021)
